Source: patent publication US12180226B2, “Spirotricycle RIPK1 inhibitors and methods of uses thereof” (Merck Sharp & Dohme LLC, priority 2021, dated 2024)
Structures can show the parent of a compound that is named as a salt.

Molecular target: RIPK1 (recombinant GST-RIPK1 kinase domain, residues 1-327) (Homo sapiens (Human), UniProt Q13546)
Experiment: RIPK1-ADP-Glo Enzymatic Assay
Type: biochemical
Settings: ADP-Glo; 25 nM GST-RIPK1, 300 μM ATP; assay lower limit ~25 nM; read-out: RIPK1 V0 Ec50
Outline: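 GST-tagged kinase domain (residues 1-327, Sf21-expressed), 25 nM, pre-incubated 30 min with compound at ambient temperature, then reacted 150 min with 300 μM ATP and 3 μM dephosphorylated MBP in HEPES pH 7.3 buffer. ADP measured by ADP-Glo luminescence; EC50 from ten-point titration (top 100000 nM), four-parameter fit.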

Sequence of RIPK1 (recombinant GST-RIPK1 kinase domain, residues 1-327) (Q13546 1-327): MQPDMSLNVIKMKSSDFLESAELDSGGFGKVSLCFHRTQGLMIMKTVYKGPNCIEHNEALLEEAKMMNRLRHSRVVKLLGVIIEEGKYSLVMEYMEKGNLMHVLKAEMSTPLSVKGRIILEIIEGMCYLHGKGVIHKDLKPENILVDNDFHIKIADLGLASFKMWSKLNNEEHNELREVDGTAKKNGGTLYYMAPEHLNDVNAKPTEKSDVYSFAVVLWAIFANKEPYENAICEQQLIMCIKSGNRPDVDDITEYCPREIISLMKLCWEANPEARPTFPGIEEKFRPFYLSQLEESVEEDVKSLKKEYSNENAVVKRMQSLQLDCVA

SMILES: O=C(c1cc(Cl)ccc1F)N1CCC2(CC1)O[C@@H]1CC[C@@H](c3cc(F)cc(F)c3)N1C2=O [Example 5.61, (5′S,7a′R)-1-(5-chloro-2-fluorobenzoyl)-5′-(3,5-difluorophenyl)tetrahydro-3′H-spiro[piperidine-4,2′-pyrrolo[2,1-b]oxazol]-3′-one]
- EC50: < 25 nM

SMILES: O=C1N2[C@@H](CC[C@H]2c2ccccc2)OC12CCN(c1cc(-c3ccco3)ccn1)CC2 [Example 4.169, (5′S,7a′R)-1-[4-(furan-2-yl)pyridin-2-yl]-5′-phenyltetrahydro-3′H-spiro[piperidine-4,2′-pyrrolo[2,1-b] [1,3]oxazol]-3′-one]
- EC50: 26.4 nM

SMILES: O=C(c1cccc(Cl)c1F)N1CCC2(CC1)O[C@@H]1CC[C@@H](c3cc(F)cc(F)c3)N1C2=O [Example 5.60, (5′S,7a′R)-1-(3-chloro-2-fluorobenzoyl)-5′-(3,5-difluorophenyl)tetrahydro-3′H-spiro[piperidine-4,2′-pyrrolo[2,1-b]oxazol]-3′-one]
- EC50: < 25 nM

SMILES: N#Cc1ccc(N2CCC3(CC2)O[C@@H]2CC[C@@H](c4cc(F)cc(F)c4)N2C3=O)cc1 [Example 4.68, 4-[(5′S,7a′R)-5′-(3,5-difluorophenyl)-3′-oxotetrahydro-1H,3′H-spiro[piperidine-4,2′-pyrrolo[2,1-b] [1,3]oxazol]-1-yl]benzonitrile]
- EC50: < 25 nM

SMILES: N#Cc1cc([C@@H]2CC[C@H]3OC4(CCN(c5ccnc6c(F)cnn56)CC4)C(=O)N32)ccc1F [Example 20.6, 2-fluoro-5-[(5′S,7a′R)-1-(3-fluoropyrazolo[1,5-a]pyrimidin-7-yl)-3′-oxotetrahydro-3′H-spiro[piperidine-4,2′-pyrrolo[2,1-b][1,3]oxazol]-5′-yl]benzonitrile]
- EC50: < 25 nM

SMILES: O=C(c1cccc(C2CC2)c1)N1CCC2(CC1)O[C@@H]1CC[C@@H](c3cc(F)cc(F)c3)N1C2=O [Example 5.62, (5′S,7a′R)-1-(3-cyclo-propylbenzoyl)-5′-(3,5-difluorophenyl)tetrahydro-3′H-spiro[piperidine-4,2′-pyrrolo[2,1-b]oxazol]-3′-one]
- EC50: < 25 nM

SMILES: CC1CC2(CCN1c1ccnc3ccnn13)O[C@@H]1CC[C@@H](c3ccccc3)N1C2=O (stereo partly drawn) [Example 4.231, (4R,5′S,7a′R)-2-methyl-5′-phenyl-1-(pyrazolo[1,5-a]pyrimidin-7-yl)tetrahydro-3′H-spiro[piperidine-4,2′-pyrrolo[2,1-b] [1,3]oxazol]-3′-one]
- EC50: < 25 nM

SMILES: O=C1N2[C@@H](CC[C@H]2c2ccccc2)OC12CCN(c1ncnc3c1CCO3)CC2 [Example 4.217, (5′S,7a′R)-1-(5,6-dihydrofuro[2,3-d]pyrimidin-4-yl)-5′-phenyltetrahydro-3′H-spiro[piperidine-4,2′-pyrrolo[2,1-b] [1,3]oxazol]-3′-one]
- EC50: 25.8 nM

SMILES: Cc1ccc(C)c(C(=O)N2CCC3(CC2)O[C@@H]2CC[C@@H](c4ccccc4)N2C3=O)c1 [Example 6.142, (5′S,7a′R)-1-(2,5-dimethylbenzene-1-carbonyl)-5′-phenyl-tetrahydro-3′H-spiro [piperidine-4,2′-pyrrolo[2,1-b][1,3]oxazol]-3′-one]
- EC50: 75.1 nM

SMILES: COc1ccc(F)c(C(=O)N2CCC3(CC2)O[C@@H]2CC[C@@H](c4cc(F)cc(F)c4)N2C3=O)c1 [Example 6.6, (5′S,7a′R)-5′-(3,5-difluorophenyl)-1-(2-fluoro-5-methoxy-benzene-1-carbonyl) tetrahydro-3′H-spiro [piperidine-4,2′-pyrrolo[2,1-b][1,3]oxazol]-3′-one]
- EC50: < 25 nM

SMILES: O=C(c1cccc(Cl)c1)N1CCC2(CC1)O[C@@H]1CC[C@@H](c3cc(F)cc(F)c3)N1C2=O [Example 6.9, (5′S,7a′R)-1-(3-chloro-benzene-1-carbonyl)-5′-(3,5-difluoro-phenyl)tetrahydro-3′H-spiro[piperidine-4,2′-pyrrolo[2,1-b] [1,3]oxazol]-3′-one]
- EC50: < 25 nM

SMILES: Cc1nccn1-c1cc(N2CCC3(CC2)O[C@@H]2CC[C@@H](c4ccccc4)N2C3=O)ncn1 [Example 4.175, (5′S,7a′R)-1-[6-(2-methyl-1H-imidazol-1-yl)pyrimidin-4-yl]-5′-phenyltetrahydro-3′H-spiro[piperidine-4,2′-pyrrolo[2,1-b] [1,3]oxazol]-3′-one]
- EC50: < 25 nM

SMILES: CC1CN(c2cccc3ncnn23)CCC12O[C@@H]1CC[C@@H](c3ccccc3)N1C2=O (stereo partly drawn) [Example 4.245, (4R,5′S,7a′R)-3-methyl-5′-phenyl-1-([1,2,4]triazolo[1,5-a]pyridin-5-yl)tetrahydro-3′H-spiro[piperidine-4,2′-pyrrolo[2,1-b] [1,3]oxazol]-3′-one]
- EC50: < 25 nM

SMILES: O=C1N2[C@@H](CC[C@H]2c2cccc(F)c2)OC12CCN(c1cc(-c3ccccc3)ncn1)CC2 [Example 4.125, (5′S,7a′R)-5′-(3-fluorophenyl)-1-(6-phenylpyrimidin-4-yl)tetrahydro-3′H-spiro[piperidine-4,2′-pyrrolo[2,1-b] [1,3]oxazol]-3′-one]
- EC50: < 25 nM

SMILES: O=C(c1cc(O)ccc1F)N1CCC2(CC1)O[C@@H]1CC[C@@H](c3cc(F)cc(F)c3)N1C2=O [Example 5.57, (5′S,7a′R)-5′-(3,5-difluoro-phenyl)-1-(2-fluoro-5-hydroxybenzoyl)tetra-hydro-3′H-spiro[piperidine-4,2′-pyrrolo[2,1-b]oxazol]-3'-one]
- EC50: < 25 nM

SMILES: O=C1N2[C@@H](CC[C@H]2c2cc(F)cc(F)c2)OC12CCN(c1cncc3ncnn13)CC2 [Example 13.4, (5′S,7a′R)-1-([1,2,4]triazolo[1,5-a]pyrazin-5-yl)-5′-(3,5-difluorophenyl)tetrahydro-3′H-spiro[piperidine-4,2′-pyrrolo[2,1-b]oxazol]-3′-one, TFA salt]
- EC50: 56 nM

SMILES: O=C(c1ccccc1F)N1CCC2(CC1)O[C@@H]1CC[C@@H](c3cc(F)cc(F)c3)N1C2=O [Example 1.9, (5′S,7a′R)-5′-(3,5-difluorophenyl)-1-(2-fluorobenzene-1-carbonyl)tetrahydro-3′H-spiro[piperidine-4,2′-pyrrolo[2,1-b] [1,3]oxazol]-3′-one]
- EC50: < 25 nM

SMILES: COc1cc(N2CCC3(CC2)O[C@@H]2CC[C@@H](c4ccccc4)N2C3=O)ncn1 [Example 4.39, (5′S,7a′R)-1-(6-methoxypyrimidin-4-yl)-5′-phenyltetrahydro-3′H-spiro[piperidine-4,2′-pyrrolo[2,1-b] [1,3]oxazol]-3′-one]
- EC50: 22.3 nM

SMILES: COc1cccc(C(=O)N2CCC3(CC2)O[C@@H]2CC[C@@H](c4cc(F)cc(F)c4)N2C3=O)c1 [Example 6.10, (5′S,7a′R)-5′-(3,5-difluorophenyl)-1-(3-methoxybenzene-1-carbonyl)tetrahydro-3′H-spiro[piperidine-4,2′-pyrrolo[2,1-b] [1,3]oxazol]-3′-one]
- EC50: < 25 nM

SMILES: COc1nc(N2CCC3(CC2)O[C@@H]2CC[C@@H](c4ccccc4)N2C3=O)ncc1F [Example 11.29, (5′S,7a′R)-1-(5-fluoro-4-methoxypyrimidin-2-yl)-5′-phenyltetrahydro-3′H-spiro[piperidine-4,2′-pyrrolo[2,1-b][1,3]oxazol]-3′-one]
- EC50: < 25 nM

SMILES: Cc1ccccc1C(=O)N1CCC2(CC1)O[C@@H]1CC[C@@H](c3cc(F)cc(F)c3)N1C2=O [Example 6.11, (5′S,7a′R)-5′-(3,5-difluorophenyl)-1-(2-methybenzene-1-carbonyl)tetrahydro-3′H-spiro[piperidine-4,2′-pyrrolo[2,1-b] [1,3]oxazol]-3′-one]
- EC50: 69.2 nM

SMILES: CC1CC2(CCN1C(=O)c1ncccc1F)O[C@@H]1CC[C@@H](c3cccc(F)c3)N1C2=O (stereo partly drawn) [Example 6.162, (4R,5′S,7a′R)-5′-(3-fluorophenyl)-1-(3-fluoropyridine-2-carbonyl)-2-methyl-tetrahydro-3′H-spiro [piperidine-4,2′-pyrrolo[2,1-b][1,3]oxazol]-3′-one]
- EC50: 38 nM

SMILES: O=C1N2[C@@H](CC[C@H]2c2ccccc2F)OC12CN(S(=O)(=O)c1ccc(F)cc1)C2 [Example 8.7, (5′S,7a′R)-5′-(2-fluorophenyl)-1-((4-fluorophenyl)sulfonyl) tetrahydro-3′H-spiro[azetidine-3,2′-pyrrolo[2,1-b]oxazol]-3′-one]
- EC50: 345 nM

SMILES: O=C1N2[C@@H](CC[C@H]2c2cc(F)cc(F)c2)OC12CCN(c1ncc(F)c3ncnn13)CC2 [Example 4.90, (5′S,7a′R)-5′-(3,5-difluorophenyl)-1-(8-fluoro-[1,2,4]triazolo [1,5-c]pyrimidin-5-yl)tetrahydro-3′H-spiro[piperidine-4,2′-pyrrolo[2,1-b]oxazol]-3′-one, TFA salt]
- EC50: 380 nM

SMILES: O=C(c1ccc(F)cc1F)N1CCC2(CC1)O[C@@H]1CC[C@@H](c3ccccc3)N1C2=O [Example 5.11, (5′S,7a′R)-1-(2,4-difluoro-benzene-1-carbonyl)-5′-phenyltetrahydro-3′H-spiro[piperidine-4,2′-pyrrolo[2,1-b][1,3]oxazol]-3′-one]
- EC50: < 25 nM

SMILES: N#Cc1ccc(N2CCC3(CC2)O[C@@H]2CC[C@@H](c4cc(F)cc(F)c4)N2C3=O)nn1 [Example 4.100, 6-((5′S,7a′R)-5′-(3,5-difluorophenyl)-3′-oxotetrahydro-3′H-spiro[piperidine-4,2′-pyrrolo[2,1-b]oxazol]-1-yl)pyridazine-3-carbonitrile]
- EC50: 240 nM

SMILES: CC(F)c1cc(N2CCC3(CC2)O[C@@H]2CC[C@@H](c4ccccc4)N2C3=O)ncn1 (stereo partly drawn) [Example 4.214, (5′S,7a′R)-1-[6-(1-fluoroethyl)pyrimidin-4-yl]-5′-phenyltetrahydro-3′H-spiro[piperidine-4,2′-pyrrolo[2,1-b] [1,3]oxazol]-3′-one]
- EC50: 128 nM

SMILES: O=C(c1cccc(F)c1)N1CCC2(CC1)O[C@@H]1CC[C@@H](c3ccccc3)N1C2=O [Example 6.154, (5′S,7a′R)-1-(3-fluoro-benzene-1-carbonyl)-5′-phenyltetrahydro-3′H-spiro[piperidine-4,2′-pyrrolo[2,1-b] [1,3]oxazol]-3′-one]
- EC50: < 25 nM
